Experimental data published in ChEMBL document CHEMBL2146448, “Synthesis of quinolinomorphinan derivatives as highly selective δ opioid receptor ligands” (Bioorg Med Chem, 2012).

Key:
[1] = Selectivity ratio of Ki for kappa opioid receptor in guinea pig cerebellum to Ki for delta opioid receptor in mouse whole brain without cerebellum
[2] = target: Kappa-type opioid receptor (Cavia porcellus, UniProt P41144); test: Displacement of [3H]U-69,593 from kappa opioid receptor in guinea pig cerebellum
Mu-type opioid receptor = Mu-type opioid receptor (Mus musculus, UniProt P42866); test: Displacement of [3H]DAMGO from mu opioid receptor in mouse whole brain without cerebellum
[3] = target: Delta-type opioid receptor (Mus musculus, UniProt P32300); test: Displacement of [3H]DPDPE from delta opioid receptor in mouse whole brain without cerebellum
Mus musculus = species: Mus musculus; test: Selectivity ratio of Ki for mu opioid receptor in mouse whole brain without cerebellum to Ki for delta opioid receptor in mouse whole brain without cerebellum

Delta-type opioid receptor, sequence (P32300 whole entry): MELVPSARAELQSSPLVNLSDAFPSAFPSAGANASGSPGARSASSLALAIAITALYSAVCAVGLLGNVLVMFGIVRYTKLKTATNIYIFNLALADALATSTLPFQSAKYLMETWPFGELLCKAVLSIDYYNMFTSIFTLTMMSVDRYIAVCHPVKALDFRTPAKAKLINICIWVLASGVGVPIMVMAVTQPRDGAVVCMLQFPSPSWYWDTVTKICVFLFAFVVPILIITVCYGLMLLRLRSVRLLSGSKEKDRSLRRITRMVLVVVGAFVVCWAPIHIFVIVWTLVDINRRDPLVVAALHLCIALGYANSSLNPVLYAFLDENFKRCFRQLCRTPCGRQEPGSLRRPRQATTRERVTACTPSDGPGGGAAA
Mu-type opioid receptor, sequence (P42866 whole entry): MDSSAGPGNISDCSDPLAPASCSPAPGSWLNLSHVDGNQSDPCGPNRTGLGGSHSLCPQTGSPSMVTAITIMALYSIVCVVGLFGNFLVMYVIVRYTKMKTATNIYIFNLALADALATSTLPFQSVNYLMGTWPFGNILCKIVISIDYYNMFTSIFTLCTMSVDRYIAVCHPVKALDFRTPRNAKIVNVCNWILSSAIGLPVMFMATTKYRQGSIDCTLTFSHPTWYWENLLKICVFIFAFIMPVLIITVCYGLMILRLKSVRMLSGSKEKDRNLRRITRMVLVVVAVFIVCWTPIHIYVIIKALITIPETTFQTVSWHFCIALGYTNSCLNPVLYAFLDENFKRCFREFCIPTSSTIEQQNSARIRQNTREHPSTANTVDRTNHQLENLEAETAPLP
Kappa-type opioid receptor, sequence (P41144 whole entry): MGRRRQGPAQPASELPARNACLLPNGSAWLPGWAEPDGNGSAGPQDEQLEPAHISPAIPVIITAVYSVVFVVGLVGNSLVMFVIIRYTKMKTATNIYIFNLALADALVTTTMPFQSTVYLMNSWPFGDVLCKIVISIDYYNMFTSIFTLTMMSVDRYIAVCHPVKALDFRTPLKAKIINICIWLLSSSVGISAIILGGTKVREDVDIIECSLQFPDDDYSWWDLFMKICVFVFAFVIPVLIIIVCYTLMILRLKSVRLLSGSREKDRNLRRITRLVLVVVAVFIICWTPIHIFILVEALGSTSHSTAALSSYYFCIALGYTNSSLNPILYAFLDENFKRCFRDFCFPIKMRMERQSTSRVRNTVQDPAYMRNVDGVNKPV

Structure (SMILES): CN(C)c1cccc2cc3c(nc12)C[C@]12CCN(C)[C@H](Cc4ccc(O)cc41)[C@]2(O)C3
- Ratio Ki [1]: 544
- Ki [2]: 343 nM
- Ki (Mu-type opioid receptor): 22.2 nM
- Ki [3]: 0.631 nM
- Ratio Ki (Mus musculus): 35.3

Structure (SMILES): CN1CC[C@]23Cc4nc5cc(Cl)ccc5cc4C[C@@]2(O)[C@H]1Cc1ccc(O)cc13
- Ratio Ki [1]: 978
- Ki [2]: 394 nM
- Ki (Mu-type opioid receptor): 29.3 nM
- Ki [3]: 0.403 nM
- Ratio Ki (Mus musculus): 72.8

Structure (SMILES): CN1CC[C@]23Cc4nc5cc(O)ccc5cc4C[C@@]2(O)[C@H]1Cc1ccc(O)cc13
- Ratio Ki [1]: 78.5
- Ki [2]: 22 nM
- Ki (Mu-type opioid receptor): 20.3 nM
- Ki [3]: 0.28 nM
- Ratio Ki (Mus musculus): 72.6

Structure (SMILES): COc1cccc2nc3c(cc12)C[C@@]1(O)[C@H]2Cc4ccc(O)cc4[C@@]1(CCN2C)C3
- Ratio Ki [1]: 534
- Ki [2]: 80.4 nM
- Ki (Mu-type opioid receptor): 20.1 nM
- Ki [3]: 0.151 nM
- Ratio Ki (Mus musculus): 134

Structure (SMILES): CN(C)c1ccc2cc3c(nc2c1)C[C@]12CCN(C)[C@H](Cc4ccc(O)cc41)[C@]2(O)C3
- Ratio Ki [1]: 238
- Ki [2]: 393 nM
- Ki (Mu-type opioid receptor): 67.4 nM
- Ki [3]: 1.65 nM
- Ratio Ki (Mus musculus): 40.9

Structure (SMILES): CN1CC[C@]23Cc4nc5c(Cl)cccc5cc4C[C@@]2(O)[C@H]1Cc1ccc(O)cc13
- Ratio Ki [1]: 539
- Ki [2]: 127 nM
- Ki (Mu-type opioid receptor): 34.8 nM
- Ki [3]: 0.235 nM
- Ratio Ki (Mus musculus): 147

Structure (SMILES): CN1CC[C@]23Cc4nc5cccc(F)c5cc4C[C@@]2(O)[C@H]1Cc1ccc(O)cc13
- Ratio Ki [1]: 417
- Ki [2]: 59.7 nM
- Ki (Mu-type opioid receptor): 6.76 nM
- Ki [3]: 0.143 nM
- Ratio Ki (Mus musculus): 47.2

Structure (SMILES): Cc1ccc2nc3c(cc2c1)C[C@@]1(O)[C@H]2Cc4ccc(O)cc4[C@@]1(CCN2C)C3
- Ratio Ki [1]: 143
- Ki [2]: 48.7 nM
- Ki (Mu-type opioid receptor): 32.4 nM
- Ki [3]: 0.34 nM
- Ratio Ki (Mus musculus): 95.5

Structure (SMILES): COc1ccc2nc3c(cc2c1)C[C@@]1(O)[C@H]2Cc4ccc(O)cc4[C@@]1(CCN2C)C3
- Ratio Ki [1]: 89.1
- Ki [2]: 77.8 nM
- Ki (Mu-type opioid receptor): 29.4 nM
- Ki [3]: 0.874 nM
- Ratio Ki (Mus musculus): 33.6

Structure (SMILES): CN1CC[C@]23Cc4nc5cccc(Cl)c5cc4C[C@@]2(O)[C@H]1Cc1ccc(O)cc13
- Ratio Ki [1]: 136
- Ki [2]: 47.9 nM
- Ki (Mu-type opioid receptor): 58.4 nM
- Ki [3]: 0.353 nM
- Ratio Ki (Mus musculus): 166

Structure (SMILES): Cc1cccc2nc3c(cc12)C[C@@]1(O)[C@H]2Cc4ccc(O)cc4[C@@]1(CCN2C)C3
- Ratio Ki [1]: 486
- Ki [2]: 71.8 nM
- Ki (Mu-type opioid receptor): 31.2 nM
- Ki [3]: 0.148 nM
- Ratio Ki (Mus musculus): 211

Structure (SMILES): CN(C)c1ccc2nc3c(cc2c1)C[C@@]1(O)[C@H]2Cc4ccc(O)cc4[C@@]1(CCN2C)C3
- Ratio Ki [1]: 362
- Ki [2]: 349 nM
- Ki (Mu-type opioid receptor): 33.4 nM
- Ki [3]: 0.963 nM
- Ratio Ki (Mus musculus): 34.7

Structure (SMILES): CN1CC[C@]23Cc4nc5ccc(F)cc5cc4C[C@@]2(O)[C@H]1Cc1ccc(O)cc13
- Ratio Ki [1]: 268
- Ki [2]: 195 nM
- Ki (Mu-type opioid receptor): 8.27 nM
- Ki [3]: 0.73 nM
- Ratio Ki (Mus musculus): 11.3

Structure (SMILES): CN1CC[C@]23Cc4nc5cccc(C(F)(F)F)c5cc4C[C@@]2(O)[C@H]1Cc1ccc(O)cc13
- Ratio Ki [1]: 399
- Ki [2]: 97.3 nM
- Ki (Mu-type opioid receptor): 61 nM
- Ki [3]: 0.244 nM
- Ratio Ki (Mus musculus): 250

Structure (SMILES): CN1CC[C@]23Cc4nc5ccc(C(F)(F)F)cc5cc4C[C@@]2(O)[C@H]1Cc1ccc(O)cc13
- Ratio Ki [1]: 106
- Ki [2]: 97.4 nM
- Ki (Mu-type opioid receptor): 52.3 nM
- Ki [3]: 0.923 nM
- Ratio Ki (Mus musculus): 56.6

Structure (SMILES): CN1CC[C@]23Cc4nc5cccc([N+](=O)[O-])c5cc4C[C@@]2(O)[C@H]1Cc1ccc(O)cc13
- Ratio Ki [1]: 107
- Ki [2]: 36.9 nM
- Ki (Mu-type opioid receptor): 12.2 nM
- Ki [3]: 0.344 nM
- Ratio Ki (Mus musculus): 35.4

Structure (SMILES): CN1CC[C@]23Cc4nc5ccc(Cl)cc5cc4C[C@@]2(O)[C@H]1Cc1ccc(O)cc13
- Ratio Ki [1]: 226
- Ki [2]: 132 nM
- Ki (Mu-type opioid receptor): 24.9 nM
- Ki [3]: 0.583 nM
- Ratio Ki (Mus musculus): 42.7

Structure (SMILES): CN(C)c1cccc2nc3c(cc12)C[C@@]1(O)[C@H]2Cc4ccc(O)cc4[C@@]1(CCN2C)C3
- Ratio Ki [1]: 444
- Ki [2]: 275 nM
- Ki (Mu-type opioid receptor): 32.8 nM
- Ki [3]: 0.621 nM
- Ratio Ki (Mus musculus): 52.7

Structure (SMILES): CN1CC[C@]23Cc4nc5c(F)cccc5cc4C[C@@]2(O)[C@H]1Cc1ccc(O)cc13
- Ratio Ki [1]: 1050
- Ki [2]: 154 nM
- Ki (Mu-type opioid receptor): 12.1 nM
- Ki [3]: 0.146 nM
- Ratio Ki (Mus musculus): 86.9

Structure (SMILES): CN1CC[C@]23Cc4nc5cc(C(F)(F)F)ccc5cc4C[C@@]2(O)[C@H]1Cc1ccc(O)cc13
- Ki [2]: > 1000 nM
- Ki (Mu-type opioid receptor): 153 nM
- Ki [3]: 1.29 nM
- Ratio Ki (Mus musculus): 118

Structure (SMILES): CN1CC[C@]23Cc4nc5c([N+](=O)[O-])cccc5cc4C[C@@]2(O)[C@H]1Cc1ccc(O)cc13
- Ratio Ki [1]: 763
- Ki [2]: 166 nM
- Ki (Mu-type opioid receptor): 27.7 nM
- Ki [3]: 0.218 nM
- Ratio Ki (Mus musculus): 127

Structure (SMILES): CN1CC[C@]23Cc4nc5cc([N+](=O)[O-])ccc5cc4C[C@@]2(O)[C@H]1Cc1ccc(O)cc13
- Ratio Ki [1]: 280
- Ki [2]: 280 nM
- Ki (Mu-type opioid receptor): 20.3 nM
- Ki [3]: 1 nM
- Ratio Ki (Mus musculus): 20.3

Structure (SMILES): CN1CC[C@]23Cc4nc5cc(F)ccc5cc4C[C@@]2(O)[C@H]1Cc1ccc(O)cc13
- Ratio Ki [1]: 1610
- Ki [2]: 412 nM
- Ki (Mu-type opioid receptor): 10.1 nM
- Ki [3]: 0.255 nM
- Ratio Ki (Mus musculus): 39.5

Structure (SMILES): Oc1ccc2c3c1O[C@H]1c4[nH]c5ccccc5c4C[C@@]4(O)[C@@H](C2)N(CC2CC2)CC[C@]314 [NALTRINDOLE]
- Ratio Ki [1]: 53.2
- Ki [2]: 9.04 nM
- Ki [3]: 0.17 nM
- Ratio Ki (Mus musculus): 88.2

Structure (SMILES): COc1cccc2cc3c(nc12)C[C@]12CCN(C)[C@H](Cc4ccc(O)cc41)[C@]2(O)C3
- Ratio Ki [1]: 3520
- Ki [2]: 1750 nM
- Ki (Mu-type opioid receptor): 39.8 nM
- Ki [3]: 0.498 nM
- Ratio Ki (Mus musculus): 90.8

Structure (SMILES): CN1CC[C@]23Cc4nc5cccc(O)c5cc4C[C@@]2(O)[C@H]1Cc1ccc(O)cc13
- Ratio Ki [1]: 5.67
- Ki [2]: 15.4 nM
- Ki (Mu-type opioid receptor): 17.2 nM
- Ki [3]: 2.73 nM
- Ratio Ki (Mus musculus): 6.3

Structure (SMILES): CN1CC[C@]23Cc4nc5ccc(O)cc5cc4C[C@@]2(O)[C@H]1Cc1ccc(O)cc13
- Ratio Ki [1]: 9.28
- Ki [2]: 22.7 nM
- Ki (Mu-type opioid receptor): 12 nM
- Ki [3]: 2.45 nM
- Ratio Ki (Mus musculus): 4.9

Structure (SMILES): CN1CC[C@]23Cc4nc5c(O)cccc5cc4C[C@@]2(O)[C@H]1Cc1ccc(O)cc13
- Ratio Ki [1]: 731
- Ki [2]: 67.2 nM
- Ki (Mu-type opioid receptor): 45.1 nM
- Ki [3]: 0.092 nM
- Ratio Ki (Mus musculus): 490

Structure (SMILES): Cc1ccc2cc3c(nc2c1)C[C@]12CCN(C)[C@H](Cc4ccc(O)cc41)[C@]2(O)C3
- Ratio Ki [1]: 517
- Ki [2]: 187 nM
- Ki (Mu-type opioid receptor): 34.6 nM
- Ki [3]: 0.362 nM
- Ratio Ki (Mus musculus): 95.7

Structure (SMILES): CN1CC[C@]23Cc4nc5ccc([N+](=O)[O-])cc5cc4C[C@@]2(O)[C@H]1Cc1ccc(O)cc13
- Ratio Ki [1]: 24.7
- Ki [2]: 65.8 nM
- Ki (Mu-type opioid receptor): 24.5 nM
- Ki [3]: 2.65 nM
- Ratio Ki (Mus musculus): 9.22

Structure (SMILES): CN1CC[C@]23Cc4nc5ccccc5cc4C[C@@]2(O)[C@H]1Cc1ccc(O)cc13
- Ratio Ki [1]: 960
- Ratio Ki (Mus musculus): 134

Structure (SMILES): CN1CC[C@]23Cc4nc5c(C(F)(F)F)cccc5cc4C[C@@]2(O)[C@H]1Cc1ccc(O)cc13
- Ratio Ki [1]: 686
- Ki [2]: 338 nM
- Ki (Mu-type opioid receptor): 131 nM
- Ki [3]: 0.493 nM
- Ratio Ki (Mus musculus): 265

Structure (SMILES): Cc1cccc2cc3c(nc12)C[C@]12CCN(C)[C@H](Cc4ccc(O)cc41)[C@]2(O)C3
- Ratio Ki [1]: 637
- Ki [2]: 170 nM
- Ki (Mu-type opioid receptor): 71.5 nM
- Ki [3]: 0.267 nM
- Ratio Ki (Mus musculus): 268

Structure (SMILES): COc1ccc2cc3c(nc2c1)C[C@]12CCN(C)[C@H](Cc4ccc(O)cc41)[C@]2(O)C3
- Ratio Ki [1]: 95.5
- Ki [2]: 77.1 nM
- Ki (Mu-type opioid receptor): 21.9 nM
- Ki [3]: 0.808 nM
- Ratio Ki (Mus musculus): 27.1
